From PMC4183655, “Discovery and Optimization of Small-Molecule Ligands for the CBP/p300 Bromodomains” (Journal of the American Chemical Society, 2014)
Where two headings read alike, the source gives them in different places.

How the values were obtained:
[1] = target: CBP BRD; conditions: cited from earlier work
[2] = tested on: CBP; conditions: cited from earlier work
[3] = tested on: BRD4(1); conditions: cited from earlier work
[4] = tested on: GFP-tagged 3 × CBP BRD construct; assay: Fluorescence recovery after photo-bleaching (FRAP) assay; conditions: HeLa cells
[5] = target: T1, CBP (Homo sapiens, UniProt Q92793); assay: DSF (ΔTm) thermal stability assay; type: binding; conditions: compound concentration 10 μM; mean ± SEM (number of measurements)
T1 sequence (Q92793 1085-1192 limits assumed): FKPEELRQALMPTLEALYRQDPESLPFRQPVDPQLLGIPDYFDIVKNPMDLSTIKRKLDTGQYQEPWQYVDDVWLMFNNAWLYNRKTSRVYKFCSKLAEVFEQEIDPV

[6] = target: T1, CBP; assay: Peptide displacement AlphaScreen; type: binding
[7] = target: T2, BRD4(1) (Homo sapiens, UniProt O60885); assay: DSF (ΔTm) thermal stability assay; type: binding; conditions: compound concentration 10 μM; mean ± SEM (number of measurements)
[8] = target: T2, BRD4(1); assay: Peptide displacement AlphaScreen; type: binding
[9] = target: T2, BRD4(1); assay: Isothermal titration calorimetry (ITC); conditions: for ITC 9T∆S, BRD4(1): At T = 298.15 K; for Selectivity for CBP over BRD4(1): from ITC Kd values
[10] = target: T1, CBP; assay: Isothermal titration calorimetry (ITC); conditions: for ITC 9T∆S, CBP: At T = 298.15 K
[11] = mean ± SEM (number of measurements), read-out: CBP AlphaScreen pIC50 (converted)

Compound	ΔTm at 10 µM [5] [°C]	ITC N (molar binding ratio of the ligand-protein interaction), BRD4(1) [9]	ITC ∆G, BRD4(1) [9] [kcal/mol]	ITC ∆H, BRD4(1) [9] [kcal/mol]	ITC 9T∆S, BRD4(1) [9] [kcal/mol]	ITC N (molar binding ratio of the ligand-protein interaction), CBP [10]	ITC ∆G, CBP [10] [kcal/mol]	ITC ∆H, CBP [10] [kcal/mol]	ITC 9T∆S, CBP [10] [kcal/mol]	Kd ([10]; ITC Ka, CBP) [nM]	further results
COc1ccc2c(c1)N(CCCNC(=O)c1cccc3c1N[C@H](C)C(=O)N3)CCC2 [Compound 4]	–	–	–	–	–	–	–	–	–	–	Kd [1]: 390 nM
Cc1noc(C)c1-c1ccc2nc[nH]c2c1 [Compound 5]	–	–	–	–	–	–	–	–	–	–	CBP pIC50 [2]: 5.4; BRD4(1) pIC50 [3]: 5.2
Cc1noc(C)c1-c1ccc2ncn(Cc3ccc(C#N)cc3)c2c1 [Compound 6]	–	–	–	–	–	–	–	–	–	–	CBP pIC50 [2]: < 4.0; FRAP half-time of fluorescence recovery (t1/2), GFP-tagged 3× CBP BRD ([4]; SAHA-treated, compound 0.1 μM): 0.74 s; BRD4(1) pIC50 [3]: 6.7
Cc1noc(C)c1-c1ccc2c(c1)ncn2Cc1ccc(Cl)cc1 [Compound 7]	–	–	–	–	–	–	–	–	–	–	CBP pIC50 [2]: 5.7
Cc1noc(C)c1-c1ccc2c(c1)nc(CC(C)(C)C)n2CCN(C)C [Compound 8]	4.5	–	–	–	–	–	–	–	–	–	IC50 [6, 11]: 501 nM; ΔTm at 10 µM [7]: 3.2 °C
Cc1noc(C)c1-c1ccc2c(c1)nc(CCc1ccccc1)n2CCN(C)C [Compound 12]	6.3	–	–	–	–	–	–	–	–	–	IC50 [6, 11]: 501 nM; ΔTm at 10 µM [7]: 2.9 °C
COC(Cn1c(CCc2ccccc2)nc2cc(-c3c(C)noc3C)ccc21)OC [Compound 13]	0.27	–	–	–	–	–	–	–	–	–	IC50 ([6]; read-out: AlphaScreen IC50 CBP): 460000 nM
Cc1noc(C)c1-c1ccc2c(c1)nc(CCc1ccccc1)n2CCN1CCC1 [Compound 14]	4.4	–	–	–	–	–	–	–	–	–	IC50 ([6]; read-out: AlphaScreen IC50 CBP): 570 nM; ΔTm at 10 µM [7]: 2.6 °C; IC50 [8]: 22000 nM
Cc1noc(C)c1-c1ccc2c(c1)nc(CCc1ccccc1)n2CCN1CCNCC1 [Compound 19]	6.5	–	–	–	–	–	–	–	–	–	IC50 ([6]; read-out: AlphaScreen IC50 CBP): 750 nM; ΔTm at 10 µM [7]: 4 °C; IC50 [8]: 7500 nM
Cc1noc(C)c1-c1ccc2c(c1)nc(CCc1ccccc1)n2CCN1CCSCC1 [Compound 20]	6.6	–	–	–	–	–	–	–	–	–	IC50 ([6]; read-out: AlphaScreen IC50 CBP): 440 nM; ΔTm at 10 µM [7]: 3.9 °C; IC50 [8]: 9500 nM
Cc1ccc(CCc2nc3cc(-c4c(C)noc4C)ccc3n2CCN2CCOCC2)cc1 [Compound 25]	7.4	0.987 ± 0.0033	-8.24	-8.74 ± 0.0402	0.501	1.02 ± 0.00208	-9.63	-9.70 ± 0.0399	0.0674	49.5	Kd ([9]; ITC Ka, BRD4(1)): 546 nM
COc1ccc(CCc2nc3cc(-c4c(C)noc4C)ccc3n2CCN2CCOCC2)cc1 [Compound 26]	8.1	–	–	–	–	–	–	–	–	–	–
Cc1noc(C)c1-c1ccc2c(c1)nc(CCc1cccc(F)c1)n2CCN1CCOCC1 [Compound 30]	7.1	–	–	–	–	–	–	–	–	–	–
Cc1noc(C)c1-c1ccc2c(c1)nc(CCc1ccc(F)cc1)n2CCN1CCOCC1 [Compound 31]	–	0.674 ± 0.00495	-8.35	-8.02 ± 0.0815	-0.331	0.887 ± 0.00152	-9.98	-9.63 ± 0.0319	-0.346	27.7	Kd ([9]; ITC Ka, BRD4(1)): 478 nM
COc1ccc(CCc2nc3cc(-c4c(C)noc4C)ccc3n2CCN2CCOCC2)cc1Cl [Compound 32]	9	0.604 ± 0.00325	-8.32	-9.99 ± 0.0746	1.670	1.18 ± 0.00143	-10.1	-10.8 ± 0.0290	0.760	22.3	ITC Ka, BRD4(1) [9]: 2.26 ± 0.121 106 M91; Selectivity for CBP over BRD4(1) [9]: 17-fold
COc1ccc(CCc2nc3cc(-c4c(C)noc4C)ccc3n2CCN2CCOCC2)cc1F [Compound 33]	9.6	–	–	–	–	–	–	–	–	–	Kd ([9]; ITC Kd BRD4(1), 15 °C): 440 ± 25 nM; Selectivity for CBP over BRD4(1) [9]: 20-fold
Cc1noc(C)c1-c1ccc2c(c1)nc(CCc1nc3ccccc3s1)n2CCN1CCOCC1 [Compound 35]	–	0.645 ± 0.00594	-8.10	-9.34 ± 0.118	1.240	0.703 ± 0.00135	-9.94	-9.30 ± 0.0342	-0.638	30.2	Kd ([9]; ITC Ka, BRD4(1)): 662 nM
Cc1noc(C)c1-c1ccc2c(c1)nc(CCn1ccc3ccccc31)n2CCN1CCOCC1 [Compound 36]	8.9	–	–	–	–	–	–	–	–	–	Kd ([9]; ITC Kd BRD4(1), 15 °C): 660 ± 55 nM; Selectivity for CBP over BRD4(1) [9]: 22-fold; Kd ([10]; ITC Kd CBP, 15 °C): 30 ± 2.1 nM
COc1ccc(CCc2cc3cc(-c4c(C)noc4C)ccc3n2CCN2CCOCC2)cc1Cl [Compound 40]	2	–	–	–	–	–	–	–	–	–	ΔTm at 10 µM [7]: < 1 °C
Cc1noc(C)c1-c1ccc(NC[C@H](C)N2CCOCC2)c([N+](=O)[O-])c1 [Compound 57]	–	1.04 ± 0.0101	-7.78	-8.50 ± 0.108	0.725	0.983 ± 0.00535	-8.50	-14.0 ± 0.0994	5.72	368	Kd ([9]; ITC Ka, BRD4(1)): 1210 nM
Cc1noc(C)c1-c1ccc2c(c1)nc(CCn1ccc3ccccc31)n2C[C@@H](C)N1CCOCC1 [Compound 60]	–	0.84 ± 0.0113	-8.30	-7.46 ± 0.127	-0.844	0.88 ± 0.00202	-10.0	-9.59 ± 0.0406	-0.420	26.2	Kd ([9]; ITC Ka, BRD4(1)): 532 nM
Cc1noc(C)c1-c1ccc2c(c1)nc(CCn1ccc3ccccc31)n2C[C@H](C)N1CCOCC1 [Compound 61]	~10	0.862 ± 0.00663	-8.09	-9.21 ± 0.0912	1.12	1.01 ± 0.00517	-8.58	-12.5 ± 0.0855	3.94	239	Kd ([9]; ITC Ka, BRD4(1)): 685 nM; Kd ([9]; ITC Kd BRD4(1), 15 °C): 530 ± 74 nM; Selectivity for CBP over BRD4(1) [9]: 20-fold; Kd ([10]; ITC Kd CBP, 15 °C): 26 ± 2.6 nM; IC50 [6, 11]: < 100 nM
COc1ccc(CCc2nc3cc(-c4c(C)noc4C)ccc3n2C[C@@H](C)N2CCOCC2)cc1F [Compound 62]	–	0.859 ± 0.00961	-8.17	-9.15 ± 0.128	0.978	1.08 ± 0.0029	-9.71	-11.1 ± 0.0496	1.37	39.4	Kd ([9]; ITC Ka, BRD4(1)): 606 nM
COc1ccc(CCc2nc3cc(-c4c(C)noc4C)ccc3n2C[C@H](C)N2CCOCC2)cc1F [Compound 63]	~10	–	–	–	–	–	–	–	–	–	Kd ([9]; ITC Kd BRD4(1), 15 °C): 610 ± 54 nM; Selectivity for CBP over BRD4(1) [9]: 16-fold; Kd ([10]; ITC Kd CBP, 15 °C): 39 ± 2.9 nM; IC50 [6, 11]: < 100 nM
O=C(CCCCCCC(=O)Nc1ccccc1)NO [SAHA, reference compound]	–	–	–	–	–	–	–	–	–	–	FRAP half-time of fluorescence recovery (t1/2), GFP-tagged 3× CBP BRD ([4]; DMSO + SAHA, no BRD inhibitor): 0.79 s
